This passage reports EC50 results from patent US7985755B2, “2,4-diaminoquinazolines for spinal muscular atrophy” (Families of Spinal Muscular Atrophy, priority 2006, dated 2011).

Structures can show the parent of a compound that is named as a salt.

The first experiment deals with SMN2 promoter. Kind of experiment: SMN2 promoter assay in NSC-34 cells (β-lactamase reporter). The experiment is classed as cell-based, mouse. As to conditions: Mus musculus, Table 1, SMN2 promoter driving β-lactamase, 12 point dose curve, read-out: Promoter Assay EC50. An excerpt: All compounds were screened using an in vitro based SMN2 promoter assay. We used NSC-34 cells, a hybrid cell line between mouse spinal cord cells and mouse neuroblastoma cells. NSC-34 cells harbor an expression plasmid containing a 3.4 kb promoter fragment of the SMN2 gene driving β-lactamase expression.
[…] […] CCF2-AM diffuses across the plasma membrane and is converted into an active β-lactamase substrate by cytoplasmic esterase. […] The fold induction is proportional to the extent of β-lactamase produced and in turn proportional to SMN2 promoter activation for a given compound relative to vehicle (DMSO) control. […] These values are used to rank activities of the compounds and derive structure activity relationship.
Turning to `Nc1nc(N)c2c(OCC3CCN(Cc4cccc(C(=O)O)c4)CC3)cccc2n1` [Example-222, 3-[4-(2,4-Diamino-quinazolin-5-yloxymethyl)-piperidin-1-ylmethyl]-benzoic acid], the EC50 (as a rule, the concentration at which the effect is half-maximal) was 1 to 5 µM.

Turning to `Nc1nc(N)c2c(OCC3CCN(Cc4ccc(C(=O)O)cc4)CC3)cccc2n1` [Example-223, 4-[4-(2,4-Diamino-quinazolin-5-yloxymethyl)-piperidin-1-ylmethyl]-benzoic Acid], the EC50 was in the range of 1 to 5 µM.

The same experiment, now with this note: Mus musculus, Table 3, SMN2 promoter driving β-lactamase, read-out: Promoter Assay EC50.
In the case of `Nc1nc(N)c2c(OCC3CCN(c4ccccc4Cl)CC3)cccc2n1` [Example-163, 5-[1-(2-Chlorophenyl)piperidin-4-ylmethoxy]quinazoline-2,4-diamine], the EC50 was below 1 µM.

The same experiment, now with this note: Mus musculus, Table 4, SMN2 promoter driving β-lactamase, read-out: Promoter Assay EC50 for 2391.003C(P).
Regarding `Nc1nc(N)c2c(N3CCN(Cc4ccccc4)CC3)cccc2n1` [Example-169, 5-(4-Benzyl-piperazin-1-yl)-quinazoline-2,4-diamine], the EC50 lay within 1 to 5 µM.

Consider `Nc1nc(N)c2c(N3CCN(Cc4ccc(Cl)cc4)CC3)cccc2n1` [Example-173, 5-[4-(4-Chloro-benzyl)-piperazin-1-yl]-quinazoline-2,4-diamine], for which the EC50 is below 1 µM.

As to `Nc1nc(N)c2c(N3CCN(Cc4ccccc4F)CC3)cccc2n1` [Example-176, 5-[4-(2-Fluoro-benzyl)-piperazin-1-yl]-quinazoline-2,4-diamine], the EC50 lay in the range of 1 to 5 µM.

In the case of `Nc1nc(N)c2c(N3CCN(Cc4ccc(F)cc4F)CC3)cccc2n1` [Example-177, 5-[4-(2,4-Difluoro-benzyl)-piperazin-1-yl]-quinazoline-2,4-diamine], the EC50 is below 1 µM.

On to `Nc1nc(N)c2c(N3CCN(Cc4ccc5c(c4)OCO5)CC3)cccc2n1` [Example-182, 5-(4-Benzo[1,3]dioxol-5-ylmethyl-piperazin-1-yl)-quinazoline-2,4-diamine], for which the EC50 is below 1 µM.

In the case of `Cc1cccc(CN2CCN(c3cccc4nc(N)nc(N)c34)CC2)c1F` [Example-183, 5-[4-(2-Fluoro-3-methyl-benzyl)-piperazin-1-yl]-quinazoline-2,4-diamine], the EC50 is below 1 µM.

On to `Nc1nc(N)c2c(N3CCN(Cc4ccc5ccccc5c4)CC3)cccc2n1` [Example-204, 5-(4-Naphthalen-2-ylmethyl-piperazin-1-yl)-quinazoline-2,4-diamine hydrochloride], for which the EC50 was in the range of 1 to 5 µM.

With `Nc1nc(N)c2c(N3CCNCC3)cccc2n1` [Example-220, 5-piperazin-1-ylquinazoline-2,4-diamine], the EC50 was below 1 µM.

Staying with this experiment, now noted: Mus musculus, Table 6, SMN2 promoter driving β-lactamase, read-out: Promoter Assay EC50.
Regarding `CC(C)(Oc1cccc2nc(N)nc(N)c12)C1CCN(Cc2c(Cl)cccc2Cl)CC1` [Example-224, 5-{1-[1-(2,6-Dichloro-benzyl)-piperidin-4-yl]-1-methyl-ethoxy}-quinazoline-2,4-diamine], the EC50 was below 1 µM.

Take `CC(C)(Oc1cccc2nc(N)nc(N)c12)C1CCN(Cc2c(F)cccc2Cl)CC1` [Example-225, 5-{1-[1-(2-Chloro-6-fluoro-benzyl)-piperidin-4-yl]-1-methyl-ethoxy}-quinazoline-2,4-diamine]: the 50% effective concentration (EC50) is below 1 µM.

For `CC1CC(COc2cccc3nc(N)nc(N)c23)CC(C)N1Cc1ccccc1F` (centres unmarked) [Example-226, 5-[1-(2-Fluoro-benzyl)-2,6-dimethyl-piperidin-4-ylmethoxy]-quinazoline-2,4-diamine], the EC50 was below 1 µM.

Consider `CC1CC(COc2cccc3nc(N)nc(N)c23)CC(C)N1Cc1c(F)cccc1Cl` (centres unmarked) [Example-227, 5-[1-(2-Chloro-6-fluoro-benzyl)-2,6-dimethyl-piperidin-4-ylmethoxy]-quinazoline-2,4-diamine], for which the concentration giving a half-maximal response (EC50) is below 1 µM.

Staying with this experiment, now noted: Table 1, SMN2 promoter driving β-lactamase, 12 point dose curve, read-out: Promoter Assay EC50.
As to `Nc1nc(N)c2c(OCC3CCN(S(=O)(=O)c4ccccc4C(F)(F)F)CC3)cccc2n1` [Example-087], the half-maximal effective concentration (EC50) is below 1 µM.

`Nc1nc(N)c2c(OCC3CCN(S(=O)(=O)c4ccc(Cl)c(Cl)c4)CC3)cccc2n1` [Example-088]: the EC50 was below 1 µM.

With `CC(C)c1ccc(S(=O)(=O)N2CCC(COc3cccc4nc(N)nc(N)c34)CC2)cc1` [Example-089], the EC50 was below 1 µM.

Turning to `CC(=O)Nc1ccc(S(=O)(=O)N2CCC(COc3cccc4nc(N)nc(N)c34)CC2)cc1` [Example-090], the EC50 was below 1 µM.

Consider `Cc1noc(C)c1CN1CCC(COc2cccc3nc(N)nc(N)c23)CC1` [Example-091], for which the 50% effective concentration (EC50) was below 1 µM.

Regarding `Nc1nc(N)c2c(OCC3CCN(Cc4cc(Cl)nc(Cl)c4)CC3)cccc2n1` [Example-093], the EC50 is below 1 µM.

Regarding `CC(=O)Nc1nc(CN2CCC(COc3cccc4nc(N)nc(N)c34)CC2)cs1` [Example-094], the EC50 was below 1 µM.

Regarding `Nc1nc(N)c2c(OCC3CCN(CC4COc5ccccc5O4)CC3)cccc2n1` (centres unmarked) [Example-096], the EC50 is below 1 µM.

As for `Nc1nc(N)c2c(OCC3CCN(Cc4ccc(OC(F)(F)F)cc4)CC3)cccc2n1` [Example-102], the EC50 was below 1 µM.

Take `Nc1nc(N)c2c(OCC3CCN(Cc4cccc(OC(F)(F)F)c4)CC3)cccc2n1` [Example-103]: the EC50 is below 1 µM.

Take `Nc1nc(N)c2c(OCC3CCN(Cc4ccc(Cl)cc4Cl)CC3)cccc2n1` [Example-104]: the EC50 was below 1 µM.

For `Nc1nc(N)c2c(OCC3CCN(C(=O)c4ccc5c(c4)OCO5)CC3)cccc2n1` [Example-105], the EC50 was below 1 µM.

For `Nc1nc(N)c2c(OCC3CCN(C(=O)c4c(F)cccc4F)CC3)cccc2n1` [Example-107], the EC50 is below 1 µM.

With `Nc1nc(N)c2c(OCC3CCN(C(=O)c4c(Cl)cccc4Cl)CC3)cccc2n1` [Example-108], the EC50 is below 1 µM.

Regarding `Nc1nc(N)c2c(OCC3CCN(C(=O)c4ccc(Cl)c(Cl)c4)CC3)cccc2n1` [Example-109], the EC50 is below 1 µM.

On to `Nc1nc(N)c2c(OCC3CCN(C(=O)c4cccc(C(F)(F)F)c4F)CC3)cccc2n1` [Example-110], for which the EC50 was below 1 µM.

With `Nc1nc(N)c2c(OCC3CCN(S(=O)(=O)c4ccc(F)cc4)CC3)cccc2n1` [Example-111], the concentration for a half-maximal effect (EC50) was below 1 µM.

Consider `COc1cccc(CN2CCC(COc3cccc4nc(N)nc(N)c34)CC2)c1` [Example-114], for which the EC50 was below 1 µM.

As for `Nc1nc(N)c2c(OCC3CCN(Cc4cc(Cl)cc(Cl)c4)CC3)cccc2n1` [Example-116], the EC50 was below 1 µM.

On to `Nc1nc(N)c2c(OCC3CCN(Cc4ccccn4)CC3)cccc2n1` [Example-118], for which the concentration giving a half-maximal response (EC50) is below 1 µM.

For `Nc1nc(N)c2c(OCC3CCN(Cc4ccncc4)CC3)cccc2n1` [Example-119], the EC50 was below 1 µM.

Regarding `COc1ccc(CN2CCC(COc3cccc4nc(N)nc(N)c34)CC2)cc1F` [Example-122], the EC50 is below 1 µM.

`Nc1nc(N)c2c(OCC3CCN(Cc4ccc(C(F)(F)F)cc4)CC3)cccc2n1` [Example-123]: the EC50 was below 1 µM.

For `COc1ccc(CN2CCC(COc3cccc4nc(N)nc(N)c34)CC2)cc1` [Example-124], the half-maximal effective concentration (EC50) is below 1 µM.

`CC(C)(C)c1ccc(CN2CCC(COc3cccc4nc(N)nc(N)c34)CC2)cc1` [Example-129]: the EC50 is below 1 µM.

Consider `Nc1nc(N)c2c(OCC3CCN(Cc4cccc(C(F)(F)F)c4)CC3)cccc2n1` [Example-130], for which the EC50 was below 1 µM.

For the compound `Nc1nc(N)c2c(OCC3CCN(Cc4ccccc4C(F)(F)F)CC3)cccc2n1` [Example-131], the EC50 was below 1 µM.

Turning to `Nc1nc(N)c2c(OCC3CCN(Cc4cccc(F)c4)CC3)cccc2n1` [Example-132], the EC50 is below 1 µM.

With `COc1cc(CN2CCC(COc3cccc4nc(N)nc(N)c34)CC2)cc(OC)c1` [Example-133], the half-maximal effective concentration (EC50) was below 1 µM.

`Nc1nc(N)c2c(OCC3CCN(Cc4cccs4)CC3)cccc2n1` [Example-135]: the EC50 was below 1 µM.

For `Nc1nc(N)c2c(OCC3CCN(Cc4cc(F)cc(F)c4)CC3)cccc2n1` [Example-137], the EC50 was below 1 µM.

For `Nc1nc(N)c2c(OCC3CCN(Cc4ccsc4)CC3)cccc2n1` [Example-145], the EC50 was below 1 µM.

As for `Cc1ccc(C)c(CN2CCC(COc3cccc4nc(N)nc(N)c34)CC2)c1` [Example-146], the EC50 was below 1 µM.

As for `Nc1nc(N)c2c(OCC3CCN(Cc4cc(F)c(F)c(F)c4)CC3)cccc2n1` [Example-148], the EC50 is below 1 µM.

For `Nc1nc(N)c2c(OCC3CCN(Cc4ccc(F)cc4)CC3)cccc2n1` [Example-149], the EC50 was below 1 µM.

Take `Cn1ccnc1CN1CCC(COc2cccc3nc(N)nc(N)c23)CC1` [Example-152]: the EC50 lay within 1 to 5 µM.

The experiment is the same for the next values; noted with them: Table 3, SMN2 promoter driving β-lactamase, read-out: Promoter Assay EC50.
With `COC(=O)c1cccc(CN2CCC(COc3cccc4nc(N)nc(N)c34)CC2)c1` [Example-156], the EC50 is below 1 µM.

`COC(=O)c1ccc(CN2CCC(COc3cccc4nc(N)nc(N)c34)CC2)cc1` [Example-157]: the EC50 was below 1 µM.
